Results as given in patent US6495514B1, “Method for reducing inflammation and inducing an analgesic effect and compounds thereof” (Mercer University, priority 1998, dated 2002).
Marks after values point to notes of the source that are not given here.

Assays:
[1] = target: T1, peptidylamidoglycolate lyase (PGL) (Rattus norvegicus, UniProt P14925); assay: Serum PGL activity after PBA dosing in rats; type: in vivo; conditions: 500 mg/kg s.c., 24 hour observation period
T1 construct: from tissue; host or cells: rat serum (tail vein blood)
T1 sequence (P14925 36-976): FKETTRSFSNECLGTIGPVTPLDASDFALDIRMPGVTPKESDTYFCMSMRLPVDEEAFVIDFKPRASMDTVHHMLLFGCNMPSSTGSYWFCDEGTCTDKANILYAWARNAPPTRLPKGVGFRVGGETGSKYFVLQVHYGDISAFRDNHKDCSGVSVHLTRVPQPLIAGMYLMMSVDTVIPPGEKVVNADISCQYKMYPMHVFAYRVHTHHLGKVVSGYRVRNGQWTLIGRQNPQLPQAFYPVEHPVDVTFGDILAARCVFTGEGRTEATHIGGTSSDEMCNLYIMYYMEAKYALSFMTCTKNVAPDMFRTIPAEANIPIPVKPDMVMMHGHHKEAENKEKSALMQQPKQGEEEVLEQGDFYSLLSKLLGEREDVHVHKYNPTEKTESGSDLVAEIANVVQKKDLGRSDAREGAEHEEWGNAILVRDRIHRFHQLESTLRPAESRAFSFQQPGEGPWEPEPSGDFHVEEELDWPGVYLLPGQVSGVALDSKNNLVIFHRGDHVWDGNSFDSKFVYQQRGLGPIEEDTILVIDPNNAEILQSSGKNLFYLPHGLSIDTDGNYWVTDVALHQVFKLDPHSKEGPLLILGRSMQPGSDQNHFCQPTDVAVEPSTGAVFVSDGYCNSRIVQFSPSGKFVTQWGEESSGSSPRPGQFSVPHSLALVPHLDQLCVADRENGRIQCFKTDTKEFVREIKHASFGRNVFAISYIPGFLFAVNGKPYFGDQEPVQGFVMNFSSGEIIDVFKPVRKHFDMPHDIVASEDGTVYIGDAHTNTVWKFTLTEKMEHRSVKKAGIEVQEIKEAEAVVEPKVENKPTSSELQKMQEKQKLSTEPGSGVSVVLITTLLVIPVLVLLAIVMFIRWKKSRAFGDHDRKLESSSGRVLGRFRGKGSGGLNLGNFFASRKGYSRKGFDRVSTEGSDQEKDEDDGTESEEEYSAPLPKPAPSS
Experimental: Male rats were fasted overnight and anesthetized with ether to obtain blood samples for measuring PAM and PGL activity in serum. Blood (0.5 ml) was collected from the tail vein at different times and spun at 14,000×g for 5 minutes. Serum was collected and stored at −70° C. until assayed. PAM activity was determined based on the procedure disclosed in Katopodis et al. (Biochemistry 30, 6189-6194, 1991). Briefly, 50 μl of serum sample (enzyme source) was added to 200 μl of the assay mixture which contained tripeptide TNP-D-Tyr-Val-Gly as the enzyme substrate (40 μM), copper sulfate (15 μM), L-ascorbate (4 mM) and catalase (1 mg/ml) in MES buffer (100 mM, pH 6.5). After a 30 minute incubation period at 37° C., an aliquot (90 μl) was quenched with 10 μl of HClO4 (3M) and centrifuged at 14,000×g for 5 minutes. A 20 μl aliquot was removed and used to assay for product using reverse phase HPLC at 344 nm on a C8 column with a mobile phase of 56% water/0.1% trifluoroacetic acid/44% acetonitrile at a flow rate of 1.5 mL/min. In this manner, both TNP-D-Tyr-Val-NH2 as well as the TNP-D-Tyr-Val-α-hydroxyGly were quantitated simultaneously. […] Enzyme activity was expressed as milliunits per milliliter which is the amount of enzyme required to produce one nanomole of product.

[2] = target: T2, peptidylglycine α-monooxygenase (PAM) (Rattus norvegicus, UniProt P14925); assay: Serum PAM activity after PBA dosing in rats; type: in vivo; conditions: for inhibition at 500 mg/kg: rat, sc
T2 construct: 50 μl of serum sample (enzyme source) was added to 200 μl of the assay mixture; from tissue; host or cells: rat serum (tail vein blood)
T2 sequence (P14925 36-976): T1 sequence (P14925 36-976)
Experimental: Male rats were fasted overnight and anesthetized with ether to obtain blood samples for measuring PAM and PGL activity in serum. Blood (0.5 ml) was collected from the tail vein at different times and spun at 14,000×g for 5 minutes. Serum was collected and stored at −70° C. until assayed. PAM activity was determined based on the procedure disclosed in Katopodis et al. (Biochemistry 30, 6189-6194, 1991). Briefly, 50 μl of serum sample (enzyme source) was added to 200 μl of the assay mixture which contained tripeptide TNP-D-Tyr-Val-Gly as the enzyme substrate (40 μM), copper sulfate (15 μM), L-ascorbate (4 mM) and catalase (1 mg/ml) in MES buffer (100 mM, pH 6.5). After a 30 minute incubation period at 37° C., an aliquot (90 μl) was quenched with 10 μl of HClO4 (3M) and centrifuged at 14,000×g for 5 minutes. A 20 μl aliquot was removed and used to assay for product using reverse phase HPLC at 344 nm on a C8 column with a mobile phase of 56% water/0.1% trifluoroacetic acid/44% acetonitrile at a flow rate of 1.5 mL/min. In this manner, both TNP-D-Tyr-Val-NH2 as well as the TNP-D-Tyr-Val-α-hydroxyGly were quantitated simultaneously. PGL activity was assayed by measuring the conversion of α-hydroxyhippuric acid to benzamide as disclosed in Katopodis and May (Biochemistry 29, 4541-4548, 1990). Briefly, 50 μl of the serum sample was added to 200 μl of a 100 mM MES buffer solution (pH 6.5) containing 2 mM of the enzyme substrate. After incubation for 30 minutes at 37° C., an aliquot of the assay mixture was quenched with 3 M HClO4, centrifuged at 14,000×g and 20 μl used to analyze for benzamide product by HPLC using a C8 reverse phase column. Product detection was performed at 225 nm using a mobile phase of 80% water/0.1% trifluoroacetic acid/20% acetonitrile at a flow rate of 1.5 mL/min. Enzyme activity was expressed as milliunits per milliliter which is the amount of enzyme required to produce one nanomole of product.

tail withdrawal latency = assay: Tail-flick response to heat (50° C. water); type: in vivo, rat; conditions: s.c., doses up to 750 mg/kg; 15, 30 and 60 minutes post-drug
Experimental: (§1) The effects of PBA on the perception of pain was evaluated using several different animal models. The spinally-mediated tail-flick response to heat in fasted rats (250-290 g) was used by measuring the withdrawal latency following immersion of the rodent's tail (2″) into hot water (50° C.). PBA at several different dose levels was administered subcutaneously and the time to tail withdrawal was measured at 0, 15, 30 and 60 minutes post-drug administration. The analgesic effects of PBA were also evaluated in fasted mice following the injection of either phenyl-p-quinone or acetylcholine. Male, ND4 Swiss mice (15-20 g) were dosed subcutaneously with PBA or saline followed immediately by the injection of phenyl-p-quinone (2 mg/kg i.p.). After 5 minutes, the number of writhes (abdominal constrictions along with contortion of the trunk and extension of the hindlimbs) was counted over the next 10 minutes. When acetylcholine (6 mg/kg i.p.) was used as the noxious agent, PBA was administered subcutaneously 15 minutes before the administration of the algesic agent. The number of writhes produced was counted over the last 5 minutes following the algesic agent.

serotonin edema = assay: Serotonin-induced hind paw edema; type: in vivo, rat
Experimental: (§2) Carrageenan, bradykinin and serotonin edemas were induced in anesthetized, male Sprague-Dawley rats (150-175 g) by injecting 0.5 mg (0.05 ml) of carrageenan, 50 μg (0.1 ml) of bradykinin and 20 μg (0.1 ml) of serotonin, respectively, into the subplantar region of the left hind paws the contralateral hind paws received saline only. Hind paw volumes (edema) were measured plethysmographically by displacement of mercury at 0, 1, 2, 3, 4 and 6 hours post administration of carrageenan, 30 minutes after bradykinin and 1 hour after serotonin. Swelling was determined by subtracting the volume (ml) of the right hind . paw from that of the left. PBA was administered subcutaneously 30 minutes before the administration of carrageenan and serotonin and one hour before bradykinin. In those experiments in which PBA was delivered continuously to rats over a 7 day period prior to the administration of carrageenan, ALZET osmotic pumps (Palo Alto, Calif.) were filled with drug and implanted subcutaneously between the scapulae into anesthetized rats.

carrageenan edema = assay: Carrageenan-induced hind paw edema; type: in vivo, rat; conditions: for inhibition of hind paw edema: 2 hours post-administration
Experimental: as §2, with “PBA was administered subcutaneously 30 minutes before the administration of carrageenan and serotonin and one hour before bradykinin.” left out

bradykinin edema = assay: Bradykinin-induced hind paw edema; type: in vivo, rat
Experimental: as §2

[3] = tested on: acetylcholine-induced writhing; assay: Acetylcholine-induced writhing; type: in vivo, mice
Experimental: as §1

[4] = tested on: phenyl-p-quinone-induced writhing; assay: Phenyl-p-quinone-induced writhing; type: in vivo, mice
Experimental: as §1

substance P (SP) = assay: SP levels in hind paw tissue (RIA); type: in vivo, rat; conditions: 75 mg/kg/hr for 7 days, prior to carrageenan (time 0)
Experimental: The effects of PBA on levels of SP were evaluated using a modification of a method previously disclosed in Ahmed et al. (Peptides 15, 317-322, 1994). Briefly, at different times following the administration of carrageenan, hind paw ankle joints were removed, immediately frozen on dry ice and stored at −80° C. until assayed for SP. After the frozen sample was weighed, it was boiled for 7 minutes as a 10% w/v solution of 2M acetic acid in 4% EDTA, pH 3.5, cut into small pieces and boiled for an additional 7 minutes. Samples were then homogenized for 60 seconds in a Brinkmann Polytron (Westbury, N.Y.), sonicated for 30 seconds and centrifuged at 3000×g for 20 minutes. Supernatants were lyophilized and then diluted in radioimmunoassay (RIA) buffer prior to analysis. SP levels were determined from these samples by using a commercially available RIA kit (INCSTAR, Stillwater, Minn.). Initial experiments conducted to insure the specificity of the substance P antibody for SP found the cross-reactivity for the glycine-extended precursor to be 1.7% at concentrations up to 100 nanograms/ml.

[5] = dose that produced significant inhibition of carrageenan edema

effect on serum PGL activity [1]: no effect
serum PAM activity compared to controls ([2]; 75 mg/kg/hr for 7 days, prior to carrageenan (time 0)): significantly reduced
dose dependence of inhibition of serum PAM activity ([2]; 50, 150 and 500 mg/kg, normal rats): dose-related
sustained reduction in serum PAM activity ([2]; continuous release 50 to 100 mg/kg/hr s.c. via osmotic pumps, throughout 7 day dosing period): > 75%
inhibition at 500 mg/kg ([2]; 500 mg/kg s.c. single dose, by 6 hours): 43%
inhibition at 500 mg/kg ([2]; 500 mg/kg s.c. single dose, conscious rats, within 1 hour, remained during first 3 hours): > 90%
SMILES: O=C(O)C/C=C/c1ccccc1 [PBA, trans-4-phenyl-3-butenoic acid]
serum PAM activity vs control ([2]; 500 mg/kg s.c. single dose, after 24 hours): not significantly different from control values
effect on time to tail withdrawal (tail withdrawal latency): did not have any effect
Inhibition (%) (serotonin edema; Serotonin 20 μg, PBA s.c. 30 minutes before, measured 1 hour after): 18.5%
Hind Paw Volume (mL ± S.E.M.) (serotonin edema; Serotonin 20 μg, PBA s.c. 30 minutes before, measured 1 hour after, n = 8): 0.66 ± 0.03 mL
inhibitory activity on edema produced by serotonin (serotonin edema; [5]): lacked significant inhibitory activity
inhibition of carrageenan edema (carrageenan edema; 75 mg/kg/hr for 1 week before carrageenan, each time period): significant inhibition
activity on carrageenan edema (carrageenan edema; 100 mg/kg dose): did not show any activity
inhibition of hind paw swelling (carrageenan edema; 100 mg/kg, administered 2 hours after induction of inflammation): only effective at hour 3
inhibition of hind paw edema (carrageenan edema; 250 mg/kg s.c. 30 minutes before carrageenan): 43%
inhibition of hind paw swelling (carrageenan edema; 250 mg/kg, administered 2 hours after induction, up to 6 hours post-phlogistic agent): significant inhibition of hind paw swelling
inhibition of hind paw edema (carrageenan edema; 500 mg/kg s.c. 30 minutes before carrageenan): 67%
inhibition of hind paw swelling (carrageenan edema; 500 mg/kg, administered 2 hours after induction, up to 6 hours post-phlogistic agent): significant inhibition of hind paw swelling
Inhibition (%) (carrageenan edema; Carrageenan, PBA s.c. 30 minutes before, measured 2 hours after, P < .05): 66.7^b %
Hind Paw Volume (mL ± S.E.M.) (carrageenan edema; Carrageenan, PBA s.c. 30 minutes before, measured 2 hours after, n = 8): 0.31 ± 0.07 mL
dose dependence of inhibition of hind paw edema (carrageenan edema; s.c. 30 minutes before carrageenan, at 2 and 3 hours post-administration): dose-related inhibition
Inhibition (%) (bradykinin edema; Bradykinin 50 μg, PBA s.c. 1 hour before, measured 30 minutes after): 25.6%
Hind Paw Volume (mL ± S.E.M.) (bradykinin edema; Bradykinin 50 μg, PBA s.c. 1 hour before, measured 30 minutes after, n = 8): 0.29 ± 0.04 mL
inhibitory activity on edema produced by bradykinin (bradykinin edema; [5]): lacked significant inhibitory activity
analgesic effect in writhing assay ([3]; 100 mg/kg dose): significant analgesic effect
ED50 ([3]; Mus musculus, sc, s.c. 15 minutes before acetylcholine, percentage of animals per group that writhed (all or none)): 105 mg/kg
analgesic effect in writhing assay ([4]; 100 mg/kg dose): significant analgesic effect
inhibition of writhing ([4]; 250 mg/kg s.c.): greater than 85%
SP levels in hind paw tissue compared to controls (substance P (SP)): significantly reduced
